The subject of one data set is Microhyla ornata. The settings on record: short-term, whole body.
Data set [1] has as its system Mus musculus. The settings on record: oral, M/F.
Data set [2] relates to Mus musculus. The settings on record: subchronic, duration: 13 weeks, oral, gavage.
Data set [3] deals with Rattus norvegicus. The settings on record: repeat dose other; oral.
For a further data set, the system named is Coturnix japonica. The settings on record: repeat dose other; oral.
Data set [4] relates to Rattus norvegicus.
Another data set has as its system Cavia porcellus. The settings on record: acute, Guinea Pig; for LD50: dermal.
For data set [5], the system named is Mus musculus. The settings on record: for LD50: acute.
The test system of the next data set is Oryctolagus sp. The settings on record: for NOAEL: reproduction developmental, duration: 13 days, oral, gavage, New Zealand.
In data set [6] the test system is Rattus norvegicus. In words: LC0; higher = less toxic. The settings on record: acute; inhalation.
Data set [7] has as its system Rattus norvegicus. The settings on record: subchronic, oral, diet.
Where [8] appears, read: subchronic, gavage, dyspnea, abnormal appearance, liver enlargement.
The mark [9] stands for this setting: subchronic, duration: 90 days, oral, diet, Fischer 344.
Where [10] appears, read: reproduction developmental, injection, Intraperitoneal, generation: F1.
The mark [11] stands for this setting: duration: 13 weeks, M/F, Fischer 344, Body Weight Changes: Body weight gain decrease + Food Consumption: decrease + Hematology: MCH decrease MCV decrease + Blood Chemistry: T-….
The mark [12] stands for this setting: chronic, duration: 104 weeks, diet, reduced hemoglobin and erythrocyte destruction.

Each structure is given as a SMILES string. “And” between values parts separate entries of the source, which are not always exact repeats. Identical values can stand only once.

With `Cc1cc(C(C)(C)c2cc(C)c(O)c(C)c2)cc(C)c1O` [4,4'-Propane-2,2-diylbis(2,6-dimethylphenol)], the LOEL in the data set on Microhyla ornata (duration: 9 day, M/F, DNA fragmentation) came out at 1 µM; with Microhyla ornata (duration: 11 day, EGFP activitiy), 1 µM.
Consider `Clc1ccc2ccccc2c1` [2-Chloronaphthalene], for which, in the data set with Mus musculus [1] (setting [8]), the LOAEL was 600 mg/kg-day and the no observed adverse effect level (NOAEL) was 250 mg/kg-day. The compound further yielded an NOAEL in the data set with Mus musculus [2] (M/F, CD1, Respiratory, Hepatic) of 250 mg/kg-day.
As for `CC(=O)[O-].CC(=O)[O-].[Pb+2]` [Lead acetate], in the data set with Rattus norvegicus [3], the LOAEL is 80 mg/kg-day and the no-observed-adverse-effect level (NOAEL) worked out at 8 mg/kg-day. In the data set on Coturnix japonica, this compound registered an LOAEL of 11.3 mg/kg-day and an NOAEL of 1.13 mg/kg-day.
With `CCCCC(CC)C(=O)O` (stereo not drawn) [2-Ethylhexanoic acid], the LD50 was greater than 2000 mg/kg in the data set on Rattus norvegicus [4] (acute, dermal); ≥ 1600 mg/kg and ≤ 3200 mg/kg with Rattus norvegicus [4] (acute, oral, gavage); ≥ 1600 mg/kg and ≤ 3200 mg/kg with Rattus norvegicus [4] (acute, oral, gavage, Sprague-Dawley); 6300 mg/kg and 5700 mg/kg and 4550 mg/kg with Cavia porcellus; 6500 mg/kg and ≥ 5000 mg/kg and ≤ 10000 mg/kg in the data set on Cavia porcellus (occlusive); 270 mg/kg in the data set with Mus musculus [5] (injection, Intraperitoneal). The LD50 in the data set on Mus musculus [5] (injection, subcutaneous) was found to be 910 mg/kg; with Oryctolagus sp. (acute, dermal), 1260 mg/kg. In addition, the LC50 in the data set on Rattus norvegicus [4] (acute, inhalation) is greater than 0.015 µg/mL; in the data set on Cavia porcellus (inhalation) it was greater than 2.39 µg/mL. The NOAEL with Rattus norvegicus [4] (reproduction developmental, duration: 10 days, oral, gavage, F, Fischer 344) was 250 mg/kg-day; with Rattus norvegicus [4] (reproduction developmental, duration: 14 days, oral, drinking water, F, Wistar) it was 300 mg/kg-day; in the data set with Rattus norvegicus [4] (reproduction developmental, oral, Sprague-Dawley, generation: F1), 446 mg/kg-day; in the data set with Rattus norvegicus [4] (reproduction developmental, oral, drinking water, Wistar, generation: F0), 300 mg/kg-day; in the data set with Rattus norvegicus [4] (reproduction developmental, oral, drinking water, Wistar, generation: F1) it was 100 mg/kg-day; in the data set on Rattus norvegicus [4] (reproduction developmental, oral, gavage, Wistar, generation: F1), 900 mg/kg-day. The no observed adverse effect level (NOAEL) with Rattus norvegicus [4] (short-term, duration: 2 weeks, oral, gavage, F, Fischer 344) is 200 mg/kg-day; in the data set with Rattus norvegicus [4] (short-term, duration: 2 weeks, oral, gavage, M, Fischer 344), 200 mg/kg-day; in the data set on Rattus norvegicus [4] (subchronic, duration: 13 weeks, oral, diet, Fischer 344), 300 mg/kg-day; with Mus musculus [5] (reproduction developmental, injection, Intraperitoneal, NMRI, generation: F1) it was 500 mg/kg-day; with Mus musculus [5] (setting [10]) it was no more than 1150 mg/kg-day; in the data set on Mus musculus [5] (short-term, duration: 2 weeks, oral, gavage, F, B6C3F1) it was 1600 mg/kg-day. Further, the NOAEL came to 800 mg/kg-day in the data set with Mus musculus [5] (short-term, duration: 2 weeks, oral, gavage, M, B6C3F1); 25 mg/kg-day with Oryctolagus sp. (F); 250 mg/kg-day in the data set with Oryctolagus sp. (generation: F1); 0.5% in the data set on Rattus norvegicus [7] (setting [11]). In addition, in the data set on Rattus norvegicus [4] (reproduction developmental, oral, F, Sprague-Dawley), the LOAEL amounted to 446 mg/kg-day. For the same compound, the “LOAEL (% diet)” value with Rattus norvegicus [4] (setting [9]) came to 0.5. For the same compound, the “NOAEL (% diet)” value in the data set with Rattus norvegicus [4] (setting [9]) was determined as 0.1; in the data set with Rattus norvegicus [4] (subchronic, oral, diet, Fischer 344) it was 5; with Mus musculus [5] (repeat dose other, oral, diet) it was 1. Besides, the LOAEC in the data set with Mus musculus [5] (setting [10]) was 1730 mg/kg-day. The LC0 in the data set on Rattus norvegicus [6] came to 2.36 mg/L. Also, the NOEL was 0.1% in the data set on Rattus norvegicus [7] (setting [11]); less than 71 mg/kg-day in the data set on Rattus norvegicus [7] (F, F344/CrjBR, Body Weight Changes: decrease + Food Consumption: decrease + Blood Chemistry: Cho increase , Alb increase + Absolute Organ Weight: Liver …); less than 0.1% in the data set on Rattus norvegicus [7] (M/F, F344/CrjBR, Body Weight Changes: decrease + Food Consumption: decrease + Blood Chemistry: Cho increase , Alb increase + Absolute Organ Weight: Liver …).
In the data set on Mus musculus [1] (setting [12]), `CC(CCl)OC(C)CCl` (stereo not drawn) [bis(2-Chloro-1-methylethyl) ether] came in with an LOAEL of 198 mg/kg-day and an NOAEL of 35.8 mg/kg-day. The compound also showed an LOAEL in the data set with Mus musculus [2] (M, SPF-ICR) of 9.69 mg/kg-day.
